Assay results reported in patent publication US5712282A, “Method for therapeutically treating tardive dyskinesia and uses thereof” (Iyo; Masaomi, priority 1994, dated 1998).

Tests used:
acute toxicity in rats = details: rat, in vivo
SD-strain rats [1] = assay: Test Example 2: oral dyskinesia induced by haloperidol decanoate (25 mg/kg i.m. every 4 weeks, 24 weeks) in rats; format: in vivo, SD-strain rats (male); details: for Number of the tongue protrusions / Number of the chewings: 15 min observation from 15 min after dosing, Mean±SE; for Number of the tongue protrusions: control 17.2 ± 5.5; for Number of the chewings: control 213.3 ± 50.5; for suppression of oral dyskinesia: haloperidol decanoate-induced, rats, i.p.
Protocol: Haloperidol decanoate was intramuscularly injected in the femoral region of each rat of SD-strain rats (male, 6 rats per group) at a dose of 25 mg/kg once for every 4 weeks during the total period of 24 weeks.
To the control group of rats was intraperitoneally administered only the physiological saline containing 10% Cremophor.
The numbers of the vacuous chewing movements and the abnormal tongue-protruding movements appearing during the 15 min. period of the observation were counted as indices of oral dyskinesia in the rats.
Values of Mean±Standard error of the numbers of the abnormal movements as observed were calculated, and the results obtained are shown in Table 3 below.

SD-strain rats [2] = assay: Test Example 1: tardive dyskinesia induced by haloperidol (1.5 mg/kg i.p. daily, 3 weeks) in rats; format: in vivo, SD-strain rats (male); details: for Number of the tongue protrusions / Number of the chewings: 15 min observation from 3 min after dosing, Mean±SE; for Number of the tongue protrusions: control 7.7 ± 2.1; for Number of the chewings: control 111.2 ± 27.8
Protocol: After lapse of 96 hours from the completion of the last administration of haloperidol, the number of the vacuous chewing movements of the mouth and the number of abnormal tongue-protruding movements of the rats were counted as the parameters indicative of tardive dyskinesia.

cAMP in the brain = details: rats; animal tests, J. Med. Chem. 34(1), 291-293 (1991); cited from earlier work
phosphodiesterase IV = details: Type of PDE inhibited: IV; in vitro; cited from earlier work
SD-strain rats [3] = assay: Test Example 3: oral dyskinesia induced by haloperidol (1.5 mg/kg i.p. daily, 5 weeks) in rats; format: in vivo, SD-strain rats (female)
Protocol: Haloperidol in the form of a suspension of haloperidol in 0.5% aqueous carboxymethylcellulose was intraperitoneally administrated at a dose of 1.5 mg/kg to each rat of SD-strain rats (female, 7 to 8 rats per group) once a day for consecutive five weeks.
Ro 20-1724 was formulated into the form of a suspension in which said compound was partially dissolved and partially dispersed in a physiological saline containing 10% Cremophor. On the next day of the final administration of haloperidol, Ro 20-1724 as the suspension was intraperitoneally administered at a dose of 3 mg/kg, […] or 30 mg/kg in the rats under test. To the control group of rats was administered only the physiological saline containing 10% Cremophor.
The numbers of the vacuous chewing movements and the abnormal tongue-protruding movements appearing during the 15 min. period of the observation were counted as the indices of oral dyskinesia in the rats. The net observation time was calculated by substracting from the total observation time of 15 minutes the amount of time which the rat spent in exploration or grooming. The indices of the oral dyskinesia were expressed as the number of occurrence of the abnormal movements observed in one minute of the net observation time.

phosphodiesterase I ~ V = details: Type of PDE inhibited: I ~ V; in vitro; cited from earlier work
phosphodiesterase I = details: Type of PDE inhibited: I; in vitro; cited from earlier work
patients = details: long-term administration; cited from earlier work

## COc1ccc(C2CNC(=O)C2)cc1OC1CCCC1 (racemic) [Rolipram, (±)-4-[3-(cyclopentyloxy)-4-methoxyphenyl]-2-pyrrolidinone]
Acute toxicity in rats; ip, intraperitoneal
  LD50: ~500 mg/kg
Acute toxicity in rats; oral
  LD50: ~1200 mg/kg
SD-strain rats [1]; 0.1 mg/kg i.p.
  Number of the tongue protrusions: 6.0 ± 2.2
  Number of the chewings: 138.0 ± 38.1
SD-strain rats [1]; 0.5 mg/kg i.p.
  Number of the tongue protrusions: 1.7 ± 1.1
  Number of the chewings: 33.8 ± 13.8
SD-strain rats [1]; 1.0 mg/kg i.p.
  Number of the tongue protrusions: 1.3 ± 1.1
  Number of the chewings: 42.0 ± 9.5
SD-strain rats [1]
  suppression of oral dyskinesia: suppress in a dose-dependent manner the oral dyskinesia
SD-strain rats [2]; 0.5 mg/kg i.p.
  Number of the tongue protrusions: 2.7 ± 1.7
  Number of the chewings: 32.2 ± 14.5
SD-strain rats [2]; 1.0 mg/kg i.p.
  Number of the tongue protrusions: 1.5 ± 1.5
  Number of the chewings: 8.8 ± 4.0
SD-strain rats [2]; haloperidol-induced rat model, i.p. 0.5 and 1.0 mg/kg
  therapeutic effect on symptoms of tardive dyskinesia: suppresses in a dose-dependent manner the symptoms of tardive dyskinesia
cAMP in the brain
  concentration of cAMP in the brain: can increase the concentration of cAMP in the brain of rats

## CCCCn1c(=O)c2c(ncn2CC(C)=O)n(CCCC)c1=O [Denbufylline, 7-(2-oxopropyl)-1,3-di-n-butylxanthine]
Phosphodiesterase IV
  IC50: 0.3 µM

## CC(C)Cn1c(=O)n(C)c(=O)c2[nH]cnc21 [IBMX, 3-isobutyl-1-methylxanthine]
SD-strain rats [1]; 2.0 mg/kg i.p.
  Number of the tongue protrusions: 4.8 ± 1.8
  Number of the chewings: 135.3 ± 45.0
SD-strain rats [1]
  suppression of oral dyskinesia: had a tendency to suppress the above-mentioned oral dyskinesia

## CCCCOc1cc(CC2CNC(=O)N2)ccc1OC (centres unmarked) [Ro 20-1724]
Phosphodiesterase IV
  IC50: 2 µM
SD-strain rats [3]; 3 mg/kg i.p., number in one minute of net observation time, Mean±SE, n = 8, control 1.90 ± 0.87
  Number of the tongue protrusions: 0.46 ± 0.17
SD-strain rats [3]; 3 mg/kg i.p., number in one minute of net observation time, Mean±SE, n = 8, control 16.2 ± 2.4
  Number of the chewings: 11.7 ± 2.1
SD-strain rats [3]; haloperidol-induced, rats, i.p. 3, 10, 30 mg/kg
  suppression of oral dyskinesia: suppressed in a dose dependent manner the oral dyskinesia

## Cn1c(=O)c2[nH]cnc2n(C)c1=O [Theophylline, 3,7-dihydro-1,3-dimethyl-1H-purine-2,6-dione]
Phosphodiesterase I ~ V
  IC50: ~200 µM

## CCOC(=O)C1=C[C@]2(CC)CCCN3CCc4c(n1c1ccccc41)[C@@H]32 [Vinpocetine, eburnamenine 14-carboxylic acid ethyl ester]
Phosphodiesterase I
  IC50: 20 µM

## O=C(CCCN1CCC(O)(c2ccc(Cl)cc2)CC1)c1ccc(F)cc1 [haloperidol]
patients
  adverse reaction: induction of tardive dyskinesia
